Assay results taken from patent publication US9005903B2, “Immunomodulating compositions and methods of use thereof” (ImmuneXcite, Inc., priority 2008, dated 2015).

Tested on: IgG antibodies
Experiment: Serum IgG antibodies binding glucan
Details: pooled serum from 10 human donors
Description: Serum from 10 unimmunized normal healthy donors was pooled
Pooled serum from 10 human donors, had high levels of IgG antibodies binding β-1,6-glucan, in contrast to low levels of IgG binding β-1,3-glucan. To test how prevalent is the anti-β-b 1,6-glucan antibodies in different donors, we collected sera from 12 individuals. The sera were used to opsonize β-1,6-glucan- or β-1,3-glucan-coated beads, and the beads were incubated with human neutrophils. Eleven of the twelve sera had the high response that the pool did, mediating efficient engulfment and ROS production (FIG. 2A, a representative serum of the high responders). One serum mediated a less efficient engulfment and ROS production (FIG. 2B, low responder).

Substance | levels of IgG antibodies binding the glucan
β-1,3-glucan | low levels
β-1,6-glucan | high levels
